Measured values taken from patent publication US9694027B2, “Pyrazole derivative and use thereof for medical purposes” (KISSEI PHARMACEUTICAL CO. LTD., priority 2012, dated 2017).

Key:
healthy adult males [1] = experiment: Multiple-dose study in healthy adult males (Example 4); assay type: in vivo, human; settings: for Daily frequency of bowel movement after the administration, Mean: once daily Days 1 and 13, 3 times daily Days 3 to 12, daily mean during fifteen days, 8 subjects, Placebo 1.0; for Number of subject with gastrointestinal disorders: Abdominal pain / Number of subject with gastrointestinal disorders: Diarrhea: of 8 subjects; for Number of subject with gastrointestinal disorders: Abdominal pain: Placebo 0; for Number of subject with gastrointestinal disorders: Diarrhea: Placebo 3
Protocol: Compound 2 at a dose of 2, 5, 10 or 20 mg (free drug equivalent), a placebo, or miglitol at a dose of 50 mg was repetitively administered orally once daily just immediately before breakfast on administration Days 1 and 13, and 3 times daily just immediately before every meal on administration Days 3 to 12 to healthy adult males. For the administration of Compound 2, tablets containing 1, 5 or 10 mg in free drug equivalent were used. The test period was set between administration Day 1 and Day 15. Frequencies of bowel movements were checked during consultation by a doctor, and the adverse events (gastrointestinal disorders) were defined when an abnormal finding (diarrhea or loose stool) was seen based on the stool form and the finding. In this regard, the frequencies of bowel movements in Table 8 show the daily means during fifteen days (time/day).

[2] = tested on: Loperamide-induced dog constipation model; experiment: Loperamide-induced dog constipation model (Example 1); assay type: in vivo; settings: for Dry fecal weight within 24 hours after the administration / Wet fecal weight within 24 hours after the administration / Frequency of bowel movement within 24 hours after the administration: mean of 10 dogs; for Dry fecal weight within 24 hours after the administration: Control group 1.0, Normal group 47.1; for Wet fecal weight within 24 hours after the administration: Control group 2.8, Normal group 136.2; for Frequency of bowel movement within 24 hours after the administration: observation at 17, 21, 24 hours, Control group 0.2, Normal group 2.1
Protocol: Lubiprostone (TLC Pharma Chem) was weighed and was suspended in 0.5% methylcellulose at preparation concentrations of 0.05 and 0.35 mg/mL to prepare control substances.
Loperamide hydrochloride (Wako pure chemical) was weighed at 0.3, 0.5, 1.0, 2.0, 4.0 or 8.0 mg/kg for each animal and was filled into a gelatin capsule.
Loperamide hydrochloride which was filled into a gelatin capsule was orally administered to dogs (beagle, male, 13-14 months old, 10 dogs, Kitayama-labesu). The dosage was increased from 0.3 mg/kg, and was set at 2.0, 4.0 or 8.0 mg/kg based on the bowel movement condition of each dog.
Tests were performed as a full cross-over trial. More than 5-day washout period was provided between each test, and a recovery of stool form was identified, and then the next test was performed.
A gelatin capsule which was filled with loperamide hydrochloride was administered orally at around 9 a.m. on the first and second days in each test.
The stool form of feces was scored in seven categories based on Bristol Stool Form Scale. The collected feces were dried fully, and then the feces were weighed, and it was set as the dry fecal weight.

[3] = tested on: patients with chronic constipation; experiment: Clinical trial in patients with chronic constipation (Example 5); assay type: in vivo, human
Protocol: After observation for 2 weeks, Compound 2 or a placebo was administered orally after eating to 79 patients with chronic constipation for 4 weeks. Patients who had steady symptoms for long periods were selected as constipation patients using diagnostic criteria of functional constipation based on Rome III as a reference.
2 mg TID group: administration of 2 mg of Compound 2, 3 times daily • (after breakfast, after lunch, after dinner)
20 mg QD group: administration of 20 mg of Compound 2, 1 time daily • (after breakfast)
20 mg BID group: administration of 20 mg of Compound 2, 2 times daily • (after breakfast, after dinner)
20 mg TID group: administration of 20 mg of Compound 2, 3 times daily • (after breakfast, after lunch, after dinner)
For the administration of Compound 2, tablets containing 1 or 10 mg in free drug equivalent of Compound 2 were used.
If the subjects complained that further administration of 2 tablets each time was difficult due to the increase in the frequency of spontaneous bowel movements or softened stool form causing problems in daily life, the dose was switched to 1 tablet each time in the week 1 visit or week 2 visit by the doctor and the administration was continued.

healthy adult males [4] = experiment: Single-dose study in healthy adult males (Example 3); assay type: in vivo, human; settings: for Number of subject with gastrointestinal disorders: Abdominal bloating / Number of subject with gastrointestinal disorders: Abdominal pain / Number of subject with gastrointestinal disorders: Diarrhea: of 6 subjects; for Frequency of bowel movement after the administration, Mean: 6 subjects, 48 hours, Placebo 1.7
Protocol: Compound 2 at a single dose of 2, 5, 10, 20, 40, 80 or 160 mg (free drug equivalent), or placebo was orally administered just immediately before breakfast to healthy adult males. For the administration of Compound 2, tablets containing 1, 5 or 10 mg in free drug equivalent were used. The test period was set between the administration and the discharge 48 hours after the administration. Frequencies of bowel movements were checked during consultation by a doctor, and the adverse events (gastrointestinal disorders) were defined when an abnormal finding (diarrhea or loose stool) was seen based on the stool form and the finding.

For `Cc1cc(OCCCNCC(C)(C)C(N)=O)ccc1Cc1c(O[C@@H]2O[C@H](CO)[C@@H](O)[C@H](O)[C@H]2O)n[nH]c1C(C)C.Cc1cc(OCCCNCC(C)(C)C(N)=O)ccc1Cc1c(O[C@@H]2O[C@H](CO)[C@@H](O)[C@H](O)[C@H]2O)n[nH]c1C(C)C.O=C(O)CCCCCCCCC(=O)O` [Compound 2, bis[3-(3-{4-[3-(β-D-glucopyranosyloxy)-5-isopropyl-1H-pyrazol-4-ylmethyl]-3-methylphenoxy}propylamino)-2,2-dimethylpropionamide]monosebacate], the “Daily frequency of bowel movement after the administration, Mean” value (from here on “Daily frequency of bowel movement”) (healthy adult males [1]; 2 mg) was 1.4 time/day, the “Daily frequency of bowel movement” value (healthy adult males [1]; 5 mg) was 1.1 time/day and the “Daily frequency of bowel movement” value (healthy adult males [1]; 10 mg) was 2.0 time/day. For the same compound, the “Daily frequency of bowel movement” value (healthy adult males [1]; 20 mg) was 1.7 time/day, the “Number of subject with gastrointestinal disorders: Abdominal pain” value (“Number of subject … Abdominal pain” below) (healthy adult males [1]; multiple dose 2 mg) was 0 and the “Number of subject with gastrointestinal disorders: Diarrhea” value (“Number of subject … Diarrhea” below) (healthy adult males [1]; multiple dose 2 mg) was 6. For the same compound, the “Number of subject … Abdominal pain” value (healthy adult males [1]; multiple dose 5 mg) was 0, the “Number of subject … Diarrhea” value (healthy adult males [1]; multiple dose 5 mg) was 5 and the “Number of subject … Abdominal pain” value (healthy adult males [1]; multiple dose 10 mg) was 0. The “Number of subject … Diarrhea” value (healthy adult males [1]; multiple dose 10 mg) was 5, the “Number of subject … Abdominal pain” value (healthy adult males [1]; multiple dose 20 mg) was 1 and the “Number of subject … Diarrhea” value (healthy adult males [1]; multiple dose 20 mg) was 6. For the same compound, the “Dry fecal weight within 24 hours after the administration” value (from here on “Dry fecal weight within 24 hours”) ([2]; 1 mg/kg oral) was 10.4 g, the “Wet fecal weight within 24 hours after the administration” value (shortened to “Wet fecal weight within 24 hours”) ([2]; 1 mg/kg oral) was 29.5 g and the “Frequency of bowel movement within 24 hours after the administration” value ([2]; 1 mg/kg oral) was 0.5 time. The “Wet fecal weight, dry weight and frequency of bowel movements versus Control group” value ([2]; 3 mg/kg or more, significance level <5%) was “significantly higher than in Control group”, the “Dry fecal weight within 24 hours” value ([2]; 3 mg/kg oral) was 21.6 g and the “Wet fecal weight within 24 hours” value ([2]; 3 mg/kg oral) was 60.9 g. For the same compound, the “Frequency of bowel movement within 24 hours after the administration” value ([2]; 3 mg/kg oral) was 1.2 time, the “Dry fecal weight within 24 hours” value ([2]; 10 mg/kg oral) was 27.3 g and the “Wet fecal weight within 24 hours” value ([2]; 10 mg/kg oral) was 77.2 g. For the same compound, the “Frequency of bowel movement within 24 hours after the administration” value ([2]; 10 mg/kg oral) was 1.5 time, the “Increases of loose stool and diarrhea” value ([2]; all doses of this test) was “not observed” and the “Dose dependence of wet fecal weight, dry weight and frequency of bowel movements” value ([2]; within 24 hours after oral administration) was “dose-dependently increased”. For the same compound, the Subjects with hypoglycemia ([3]; all groups administered, 4 weeks) was “no subjects with hypoglycemia were reported”, the “Frequency of spontaneous bowel movements per week” value (“Frequency … per week” below) ([3]; subject 1, 2 mg TID, administration week 1, observation period 1.1) was 7.0 time/week and the “Bristol Stool Form Scale” value ([3]; subject 1, 2 mg TID, administration week 1, observation period 1.5) was 3.7 mean/week. The “Frequency … per week” value ([3]; subject 1, 2 mg TID, administration week 2, observation period 1.1) was 7.0 time/week, the “Bristol Stool Form Scale” value ([3]; subject 1, 2 mg TID, administration week 2, observation period 1.5) was 3.7 mean/week and the “Frequency … per week” value ([3]; subject 1, 2 mg TID, administration week 3, observation period 1.1) was 11.0 time/week. The “Bristol Stool Form Scale” value ([3]; subject 1, 2 mg TID, administration week 3, observation period 1.5) was 4.1 mean/week, the “Frequency … per week” value ([3]; subject 1, 2 mg TID, administration week 4, observation period 1.1) was 10.5 time/week and the “Bristol Stool Form Scale” value ([3]; subject 1, 2 mg TID, administration week 4, observation period 1.5) was 3.8 mean/week. The “Frequency … per week” value ([3]; subject 2, 20 mg QD, administration week 1, observation period 1.8) was 12.0 time/week, the “Bristol Stool Form Scale” value ([3]; subject 2, 20 mg QD, administration week 1, observation period 3.0) was 4.6 mean/week and the “Frequency … per week” value ([3]; subject 2, 20 mg QD, administration week 2, observation period 1.8) was 13.0 time/week. For the same compound, the “Bristol Stool Form Scale” value ([3]; subject 2, 20 mg QD, administration week 2, observation period 3.0) was 4.0 mean/week, the “Frequency … per week” value ([3]; subject 2, 20 mg QD, administration week 3, observation period 1.8) was 8.0 time/week and the “Bristol Stool Form Scale” value ([3]; subject 2, 20 mg QD, administration week 3, observation period 3.0) was 3.4 mean/week. The “Bristol Stool Form Scale” value ([3]; subject 3, 20 mg BID switched to 10 mg 2 times daily after 1 week, administration week 2, observation period 2.0) was 4.0 mean/week, the “Frequency … per week” value ([3]; subject 3, 20 mg BID switched to 10 mg 2 times daily after 1 week, administration week 2, observation period 2.2) was 6.0 time/week and the “Bristol Stool Form Scale” value ([3]; subject 3, 20 mg BID switched to 10 mg 2 times daily after 1 week, administration week 3, observation period 2.0) was 4.3 mean/week. The “Frequency … per week” value ([3]; subject 3, 20 mg BID switched to 10 mg 2 times daily after 1 week, administration week 3, observation period 2.2) was 6.0 time/week, the “Bristol Stool Form Scale” value ([3]; subject 3, 20 mg BID switched to 10 mg 2 times daily after 1 week, administration week 4, observation period 2.0) was 4.2 mean/week and the “Frequency … per week” value ([3]; subject 3, 20 mg BID switched to 10 mg 2 times daily after 1 week, administration week 4, observation period 2.2) was 5.0 time/week. For the same compound, the “Bristol Stool Form Scale” value ([3]; subject 3, 20 mg BID, administration week 1, observation period 2.0) was 5.9 mean/week, the “Frequency … per week” value ([3]; subject 3, 20 mg BID, administration week 1, observation period 2.2) was 21.0 time/week and the “Stool form (Bristol Stool Form Scale)” value (healthy adult males [4]; 80 mg and 160 mg groups) was “type 6 or 7 for many subjects”. The “Number of subject with gastrointestinal disorders: Abdominal bloating” value (from here on “Number of subject … Abdominal bloating”) (healthy adult males [4]; single dose 2 mg) was 0, the “Number of subject … Abdominal pain” value (healthy adult males [4]; single dose 2 mg) was 0 and the “Number of subject … Diarrhea” value (healthy adult males [4]; single dose 2 mg) was 1. For the same compound, the “Number of subject … Abdominal bloating” value (healthy adult males [4]; single dose 5 mg) was 0, the “Number of subject … Abdominal pain” value (healthy adult males [4]; single dose 5 mg) was 0 and the “Number of subject … Diarrhea” value (healthy adult males [4]; single dose 5 mg) was 0. The “Number of subject … Abdominal bloating” value (healthy adult males [4]; single dose 10 mg) was 0, the “Number of subject … Abdominal pain” value (healthy adult males [4]; single dose 10 mg) was 0 and the “Number of subject … Diarrhea” value (healthy adult males [4]; single dose 10 mg) was 2. For the same compound, the “Number of subject … Abdominal bloating” value (healthy adult males [4]; single dose 20 mg) was 0, the “Number of subject … Abdominal pain” value (healthy adult males [4]; single dose 20 mg) was 0 and the “Number of subject … Diarrhea” value (healthy adult males [4]; single dose 20 mg) was 2. The “Number of subject … Abdominal bloating” value (healthy adult males [4]; single dose 40 mg) was 0, the “Number of subject … Abdominal pain” value (healthy adult males [4]; single dose 40 mg) was 0 and the “Number of subject … Diarrhea” value (healthy adult males [4]; single dose 40 mg) was 2. The “Number of subject … Abdominal bloating” value (healthy adult males [4]; single dose 80 mg) was 2, the “Number of subject … Abdominal pain” value (healthy adult males [4]; single dose 80 mg) was 4 and the “Number of subject … Diarrhea” value (healthy adult males [4]; single dose 80 mg) was 5. For the same compound, the “Number of subject … Abdominal bloating” value (healthy adult males [4]; single dose 160 mg) was 3, the “Number of subject … Abdominal pain” value (healthy adult males [4]; single dose 160 mg) was 3 and the “Number of subject … Diarrhea” value (healthy adult males [4]; single dose 160 mg) was 6. For the same compound, the “Severity of gastrointestinal disorders (abdominal bloating, abdominal pain, diarrhea)” value (healthy adult males [4]; single dose 2-160 mg) was “mild in all the cases”, the “Frequency of bowel movement after the administration, Mean” value (healthy adult males [4]; single oral dose 2 mg (free drug equivalent)) was 1.7 time and the “Frequency of bowel movement after the administration, Mean” value (healthy adult males [4]; single oral dose 5 mg (free drug equivalent)) was 1.0 time. For the same compound, the “Frequency of bowel movement after the administration, Mean” value (healthy adult males [4]; single oral dose 10 mg (free drug equivalent)) was 2.2 time, the “Frequency of bowel movement after the administration, Mean” value (healthy adult males [4]; single oral dose 20 mg (free drug equivalent)) was 2.2 time and the “Frequency of bowel movement after the administration, Mean” value (healthy adult males [4]; single oral dose 40 mg (free drug equivalent)) was 1.8 time. For the same compound, the “Frequency of bowel movement after the administration, Mean” value (healthy adult males [4]; single oral dose 80 mg (free drug equivalent)) was 4.8 time and the “Frequency of bowel movement after the administration, Mean” value (healthy adult males [4]; single oral dose 160 mg (free drug equivalent)) was 5.2 time.
